Patent US10294202B2, “Pyrrolidinones as herbicides” (FMC Corporation, priority 2013, dated 2019)

Assays:
dayflower, VA = assay: Test E preemergence herbicide test; format: in vivo, Commelina virginica; parameters: key: 0 = no effect, 100 = complete control
Source text: Seeds of plant species selected from corn (Zea mays), soybean (Glycine max), velvetleaf (Abutilon theophrasti), lambsquarters (Chenopodium album), wild poinsettia (Euphorbia heterophylla), pigweed, palmer (palmer pigweed, Amaranthus palmeri), waterhemp (common waterhemp, Amaranthus rudis), surinam grass (Brachiaria decumbens), crabgrass, large (large crabgrass, Digitaria sanguinalis), crabgrass, Brazil (Brazilian crabgrass, Digitaria horizontalis), panicum, fall (fall panicum, Panicum dichotomiflorum), foxtail, giant (giant foxtail, Setaria faberii), foxtail, green (green foxtail, Setaria viridis), goosegrass (Eleusine indica), johnsongrass (Sorghum halepense), ragweed (common ragweed, Ambrosia elatior), barnyardgrass (Echinochloa crus-galli), sandbur (southern sandbur, Cenchrus echinatus), arrowleaf […] rhombifolia), ryegrass, Italian (Italian ryegrass, Lolium multiflorum), dayflower, VA (Virginia dayflower, Commelina virginica), field bindweed (Convolvulus arvensis), morningglory (Ipomoea coccinea), nightshade (eastern black nightshade, Solanum ptycanthum), kochia (Kochia scoparia), nutsedge, yellow (yellow nutsedge, Cyperus esculentus), cocklebur (common cocklebur, Xanthium strumarium), smartweed (ladysthumb smartweed, Polygonum Persicaria) and beggarticks (hairy beggarticks, Bidens pilosa), were planted into a silt loam soil and treated preemergence with test chemicals formulated in a non-phytotoxic solvent mixture which included a surfactant. Treated plants and controls were maintained in a greenhouse for 21 days, after which time all species were compared to controls and visually evaluated. Plant response ratings, summarized in Table E, are based on a scale of 0 to 100 where 0 is no effect and 100 is complete control. A dash (-) response means no test result.

chamomile = assay: Test D pre-/postemergence herbicide test; format: in vivo, Matricaria inodora; conditions: Preemergence; for Plant response rating, Chamomile: scale 0 to 100 (0 no effect, 100 complete control)
In short: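 Seeds sown in silt loam were sprayed preemergence with test chemicals in a non-phytotoxic solvent mixture with surfactant. Postemergence plants grown in peat/vermiculite medium were treated at 2–18 cm (1- to 4-leaf stage). After 7 to 21 days in a controlled environment, injury was rated visually versus controls, 0 (no effect) to 100 (complete control).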

bromegrass, downy = assay: Test D pre-/postemergence herbicide test; format: in vivo, Bromus tectorum; conditions: Preemergence; for Plant response rating, Bromegrass, Downy: scale 0 to 100 (0 no effect, 100 complete control)
Source text: (§1) Seeds of plant species selected from bluegrass (annual bluegrass, Poa annua), blackgrass (Alopecurus myosuroides), canarygrass (littleseed canarygrass, Phalaris minor), chickweed (common chickweed, Stellaria media), galium (catchweed bedstraw, Galium aparine), bromegrass, downy (downy bromegrass, Bromus tectorum), field poppy (Papaver rhoeas), field violet (Viola arvensis), foxtail, green (green foxtail, Setaria viridis), deadnettle (henbit deadnettle, Lamium amplexicaule), ryegrass, Italian (Italian ryegrass, Lolium multiflorum), kochia (Kochia scoparia), lambsquarters (Chenopodium album), oilseed rape (Brassica napus), pigweed (Amaranthus retroflexus), chamomile (scentless chamomile, Matricaria inodora), Russian thistle (Salsola kali), speedwell (bird's-eye speedwell, Veronica persica), barley, spring (spring barley, Hordeum vulgare), wheat, spring (spring wheat, Triticum aestivum), buckwheat, wild (wild buckwheat, Polygonum convolvulus), mustard, wild (wild mustard, Sinapis arvensis), oat, wild (wild oat, Avena fatua), radish, wild (wild radish, Raphanus raphanistrum), […]), barley, winter (winter barley, Hordeum vulgare), and wheat, winter (winter wheat, Triticum aestivum) were planted into a silt loam soil and treated preemergence with test chemicals formulated in a non-phytotoxic solvent mixture which included a surfactant. At the same time, these species were planted in pots containing Redi-Earth® planting medium (Scotts Company, 14111 Scottslawn Road, Marysville, Ohio 43041) comprising spaghnum peat moss, vermiculite, wetting agent and starter nutrients and treated with postemergence applications of the test chemicals formulated in the same manner. Plants ranged in height from 2 to 18 cm (1- to 4-leaf stage). Treated plants and controls were maintained in a controlled growth environment for 7 to 21 days after which time all species were compared to controls and visually evaluated. Plant response ratings, summarized in Table D, are based on a scale of 0 to 100 where 0 is no effect and 100 is complete control. A dash (-) response means no test result.

rice, transplanted = assay: Test F flood (paddy) test; format: in vivo, Oryza sativa cv. Japonica—M202; conditions: 21 d, scale 0-100
In short: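 Compounds were applied directly to paddy water held 3 cm above silt loam soil, with rice and weeds at the 2.0–2.5-leaf stage, grown in a greenhouse at 30/27° C under a 16-h photoperiod. Visual ratings (0 no effect to 100 complete control) were made against untreated controls after 21 d.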

lambsquarters = assay: Test D pre-/postemergence herbicide test; format: in vivo, Chenopodium album; conditions: Preemergence; for Plant response rating, Lambsquarters: scale 0 to 100 (0 no effect, 100 complete control)
Source text: as §1

chickweed = assay: Test D pre-/postemergence herbicide test; format: in vivo, Stellaria media; conditions: Preemergence; for Plant response rating, Chickweed: scale 0 to 100 (0 no effect, 100 complete control)
Source text: as §1

mustard, wild = assay: Test D pre-/postemergence herbicide test; format: in vivo, Sinapis arvensis; conditions: Preemergence; for Plant response rating, Mustard, Wild: scale 0 to 100 (0 no effect, 100 complete control)
Source text: as §1

O=C1NCC(c2ccc(C(F)(F)F)cc2)C1C(=O)Nc1ccc(F)c(F)c1F (centres unmarked) [Compound 232]
Plant response rating, Dayflower, VA (dayflower, VA; 31 g ai/ha): 0
Plant response rating, Dayflower, VA (dayflower, VA; 62 g ai/ha): 0
Plant response rating, Dayflower, VA (dayflower, VA; 125 g ai/ha): 0
Plant response rating, Dayflower, VA (dayflower, VA; 250 g ai/ha): 10

O=C1NCC(c2ccc(F)cc2)C1C(=O)Nc1ccccc1F (racemic) [Compound 16]
Plant response rating, Dayflower, VA (dayflower, VA; 16 g ai/ha): 0
Plant response rating, Dayflower, VA (dayflower, VA; 62 g ai/ha): 0
Plant response rating, Dayflower, VA (dayflower, VA; 125 g ai/ha): 0

O=C1NCC(c2cccc(Br)c2)C1C(=O)Nc1ccccc1F (centres unmarked) [Compound 66]
Plant response rating, Dayflower, VA (dayflower, VA; 16 g ai/ha): 0
Plant response rating, Dayflower, VA (dayflower, VA; 31 g ai/ha): 0
Plant response rating, Dayflower, VA (dayflower, VA; 62 g ai/ha): 0
Plant response rating, Dayflower, VA (dayflower, VA; 125 g ai/ha): 0
Plant response rating, Dayflower, VA (dayflower, VA; 250 g ai/ha): 0

O=C1NCC(c2cccc(C(F)(F)F)c2)C1C(=O)Nc1ccc(F)cc1F (racemic) [Compound 207]
Plant response rating, Chamomile (chamomile; 31 g ai/ha): 75
Plant response rating, Chamomile (chamomile; 62 g ai/ha): 80
Plant response rating, Chamomile (chamomile; 125 g ai/ha): 85
Plant response rating (chamomile; 250 g ai/ha, Chamomile, scale 0 to 100): 85
Plant response rating, Bromegrass, Downy (bromegrass, downy; 31 g ai/ha): 0
Plant response rating, Bromegrass, Downy (bromegrass, downy; 62 g ai/ha): 15
Plant response rating, Bromegrass, Downy (bromegrass, downy; 125 g ai/ha): 15
Plant response rating (bromegrass, downy; 250 g ai/ha, Bromegrass, Downy, scale 0 to 100): 15
Plant response rating, Rice, Transplanted (rice, transplanted; 125 g ai/ha): 0
Plant response rating, Rice, Transplanted (rice, transplanted; 250 g ai/ha): 0
Plant response rating, Rice, Transplanted (rice, transplanted; 500 g ai/ha): 0
Plant response rating, Lambsquarters (lambsquarters; 31 g ai/ha): 0
Plant response rating, Lambsquarters (lambsquarters; 62 g ai/ha): 30
Plant response rating, Lambsquarters (lambsquarters; 125 g ai/ha): 65
Plant response rating (lambsquarters; 250 g ai/ha, Lambsquarters, scale 0 to 100): 90
Plant response rating, Chickweed (chickweed; 31 g ai/ha): 60
Plant response rating, Chickweed (chickweed; 62 g ai/ha): 60
Plant response rating, Chickweed (chickweed; 125 g ai/ha): 70
Plant response rating (chickweed; 250 g ai/ha, Chickweed, scale 0 to 100): 100
Plant response rating, Mustard, Wild (mustard, wild; 31 g ai/ha): 10
Plant response rating, Mustard, Wild (mustard, wild; 62 g ai/ha): 25
Plant response rating, Mustard, Wild (mustard, wild; 125 g ai/ha): 25
Plant response rating (mustard, wild; 250 g ai/ha, Mustard, Wild, scale 0 to 100): 30
